Data set [1] has as its system replicating Mycobacterium tuberculosis. As to the kind of experiment: MABA microplate Alamar blue assay, MIC (aerobic). The conditions noted are these: 192 h. The format is cell-based.
In data set [2] the test system is VERO cells (CCL-81). As to the kind of experiment: Mammalian cell cytotoxicity assay (tetrazolium dye). The format is cell-based. Particulars: Chlorocebus sabaeus, 72 h exposure, read-out: IC50 VERO. As to the method: (b) Mammalian cell cytotoxicity assay. This was assessed against VERO cells (CCL-81, American Type Culture Collection) in a 72 h exposure, using a tetrazolium dye assay (Falzari et al., 2005).

Data set [3] relates to Trypanosoma cruzi amastigotes (Tulahuen C2C4 strain). As to the kind of experiment: Trypanosoma cruzi assay in infected L-6 cells. The format is cell-based. Particulars: L6, 96 h incubation, read-out: IC50 T. cruzi. The procedure:
(§1) (c) Antiprotozoal screening. Compounds were evaluated for their activities against both Trypanosoma cruzi amastigotes and Leishmania donovani amastigotes (free or encapsulated in macrophages), according to the following protocols:
(i) Trypanosoma cruzi assay. L-6 cells (2×10^3) in medium (100 μL of RPMI 1640 supplemented with 2 mM L-glutamine plus 10% heat inactivated fetal calf serum) were seeded in 96-well microtitre plates (Costar™) and incubated at 37° C. (5% CO2) for 1d. A suspension (50 μL) of Trypanosoma cruzi trypomastigotes (5×10^3 of Tulahuen C2C4 strain, containing the β-galactosidase gene) was added, and the cells were incubated at 37° C. (5% CO2) for a further 48 h to establish the infection. The medium was removed and replaced by fresh medium and the infected cells were then incubated at 37° C. (5% CO2) for 96 h in either medium alone or in the presence of serial (3-fold) dilutions of test compounds (initially prepared as 10 mg/mL stock solutions in DMSO and diluted into medium). Benznidazole was employed as a standard in each assay. Following incubation, chlorophenol red glycoside (100 mM) in 0.1% Nonidet P40/PBS (50 μL) was added, and (after 6 h) the absorbance at 540 nm was measured and used to calculate the IC50 values.

For data set [4], the system named is Axenically grown L. donovani amastigotes (MHOM-ET-67/L82). As to the kind of experiment: Axenic Leishmania donovani assay. Particulars: 70 h incubation, read-out: IC50 L. donovani axen. Format: cell-based. The procedure:
as §1
(ii) Axenic Leishmania donovani assay. Axenically grown L. donovani amastigotes (MHOM-ET-67/L82) from a healthy culture in log phase were seeded at a density of 1×10^6/mL medium (SM, pH 5.4 plus 10% heat inactivated fetal calf serum) in 96-well microtitre plates (Costar™) and incubated at 37° C. (5% CO2) for 70 h in either medium alone or in the presence of serial (3-fold) dilutions of test compounds (initially prepared as 10 mg/mL stock solutions in DMSO and diluted into medium). Miltefosin was employed as a standard in each assay. After incubation, Resazurin fluorescent dye was added to each well, and incubation was continued for an additional 2 h. The IC50 values were determined from measurements of the fluorescence data.

Data set [5] concerns L. donovani amastigotes (MHOM-ET-67/L82) in mouse macrophages. As to the kind of experiment: Leishmania donovani infected macrophage assay. Format: cell-based. The conditions noted are these: 96 h incubation, read-out: IC50 L. donovani macro. As to the method:
as §1
(iii) Leishmania donovani infected macrophage assay. Freshly harvested mouse macrophages in medium (RPMI 1640 plus 10% heat inactivated fetal calf serum) were incubated at 37° C. (5% CO2) for 24 h and then infected (1:3 macrophages to amastigotes) with an axenic L. donovani amastigote culture (MHOM-ET-67/L82) in medium (SM, pH 5.4 plus 10% heat inactivated fetal calf serum). The infected macrophages were seeded at a density of 1.2×10^6/mL (by diluting in RPMI+10% FCS) in 16-well slides (Lab-tek™) and incubated at 37° C. (5% CO2) for 24 h. The medium was removed and replaced by fresh medium (RPMI 1640+10% FCS), and this was repeated following mixing. The infected macrophages were then incubated at 37° C. (5% CO2) for 96 h in either medium alone or in the presence of serial (3-fold) dilutions of test compounds (initially prepared as 10 mg/mL stock solutions in DMSO and diluted into medium). Miltefosin was employed as a standard in each assay. […], the slides were fixed (5 min in 100% MeOH) and stained (10% Giemsa, 10 min). The ratio of infected to uninfected macrophages was determined by microscopic examination, and the IC50 values were then calculated by linear regression analysis.

Values after ≈ are worked out from the molar mass of the structure shown.

Usually melting point stands for the temperature, or range, at which the solid turns liquid. In general, MIC refers to the lowest concentration that inhibits growth of the organism. A lower MIC goes with greater potency. Broadly, the IC50 is the midpoint of a concentration-inhibition curve.

Take `O=[N+]([O-])c1cn2c(n1)OC(COc1ccc(OC(F)(F)F)cc1)C2` (centres unmarked): the melting point fell in the range of 170 to 172 °C. As to `CC1(COc2ccc(-c3ccc(F)cc3)cn2)Cn2cc([N+](=O)[O-])nc2O1` (centres unmarked), the melting point fell in the range of 162 to 164 °C.

Turning to `CC1(COc2ccc(-c3ccc(OC(F)(F)F)cc3)cn2)Cn2cc([N+](=O)[O-])nc2O1` (centres unmarked), the melting point was in the range of 172 to 174 °C. `CC1(COc2ccc(-c3ccc(F)cc3)nc2)Cn2cc([N+](=O)[O-])nc2O1` (centres unmarked) yielded a melting point of 180 to 181 °C. `CC1(COc2ccc(-c3ccc(OC(F)(F)F)cc3)nc2)Cn2cc([N+](=O)[O-])nc2O1` (centres unmarked) showed a melting point of 209 to 211 °C. As to `CC1(COc2ncc(-c3ccc(F)cc3)cn2)Cn2cc([N+](=O)[O-])nc2O1` (centres unmarked), the melting point was 196 °C (dec.).

Consider `CC1(COc2ncc(-c3ccc(OC(F)(F)F)cc3)cn2)Cn2cc([N+](=O)[O-])nc2O1` (centres unmarked), for which the melting point was 227 °C (dec.). As for `CC1(COc2cnc(-c3ccc(F)cc3)nc2)Cn2cc([N+](=O)[O-])nc2O1` (centres unmarked), the melting point was 201 to 203 °C. Take `O=[N+]([O-])c1cn2c(n1)OC(COc1ccc(OCc3ccccc3)cc1)C2` (centres unmarked): the melting point was in the range of 208 to 210 °C. For the compound `CC1(COc2cnc(-c3ccc(OC(F)(F)F)cc3)nc2)Cn2cc([N+](=O)[O-])nc2O1` (centres unmarked), the melting point fell in the range of 223 to 225 °C. On the same count and under the same terms, with `CC1(COc2cnc(-c3ccc(F)cc3)cn2)Cn2cc([N+](=O)[O-])nc2O1` (centres unmarked) the figure was 200 to 201 °C; with `CC1(COc2cnc(-c3ccc(OC(F)(F)F)cc3)cn2)Cn2cc([N+](=O)[O-])nc2O1` (centres unmarked), 222 to 224 °C. The same measure, in the same setting: with `O=[N+]([O-])c1cn2c(n1)OC(COCc1ccc(OC(F)(F)F)cc1)C2` (centres unmarked) the figure was 134 to 135 °C; with `O=[N+]([O-])c1cn2c(n1)OC(COCc1ccc(OCc3ccccc3)cc1)C2` (centres unmarked), 123 to 124 °C. Compound `O=[N+]([O-])c1cn2c(n1)OC(COc1ccc(-c3ccc(F)cc3)cc1)C2` (centres unmarked) registered a melting point of 224 to 226 °C. On the same count and under the same terms, the value for `O=[N+]([O-])c1cn2c(n1)OC(COc1ccc(-c3ccc(C(F)(F)F)cc3)cc1)CC2` (centres unmarked) was 242 to 245 °C; that for `O=[N+]([O-])c1cn2c(n1)OC(COc1ccc(-c3ccc(OC(F)(F)F)cc3)cn1)CC2` (centres unmarked) was 161 to 163 °C; that for `CC1(COc2ccc(OCc3ccccc3)cc2)CCn2cc([N+](=O)[O-])nc2O1` (centres unmarked) was 174 to 176 °C. With `CC1(COc2ccc(-c3ccc(F)cc3)cc2)CCn2cc([N+](=O)[O-])nc2O1` (centres unmarked), the melting point was in the range of 160 to 162 °C.

In turn, `CC1(COc2ccc(-c3ccc(C(F)(F)F)cc3)cc2)CCn2cc([N+](=O)[O-])nc2O1` (centres unmarked) had a melting point of 196 to 198 °C. Same read-out and setting: with `O=[N+]([O-])c1cn2c(n1)OC(COc1ccc(-c3ccc(C(F)(F)F)cc3)cc1)C2` (centres unmarked) the figure was 210 to 211 °C; with `CC1(COc2ccc(-c3ccc(C(F)(F)F)cc3)cn2)CCn2cc([N+](=O)[O-])nc2O1` (centres unmarked), 212 to 214 °C. `CC1(COc2ccc(-c3ccc(OC(F)(F)F)cc3)cn2)CCn2cc([N+](=O)[O-])nc2O1` (centres unmarked) registered a melting point of 195 to 198 °C. With `CC1(COc2ccc(-c3ccc(C(F)(F)F)cc3)nc2)CCn2cc([N+](=O)[O-])nc2O1` (centres unmarked), the melting point was 215 to 217 °C. Same read-out and setting: with `CC1(COc2ccc(-c3ccc(OC(F)(F)F)cc3)nc2)CCn2cc([N+](=O)[O-])nc2O1` (centres unmarked) the figure was 202 to 203 °C; with `O=[N+]([O-])c1cn2c(n1)OC(COc1ccc(-c3ccc(OC(F)(F)F)cc3)cc1)C2` (centres unmarked), 200 to 201 °C. Compound `CC1(COCc2cccc(OC(F)(F)F)c2)CCn2cc([N+](=O)[O-])nc2O1` (centres unmarked) showed a melting point of 108 to 110 °C.

As for `CC1(COCc2ccc(OC(F)(F)F)cc2)CCn2cc([N+](=O)[O-])nc2O1` (centres unmarked), the melting point fell in the range of 100 to 101 °C. The same measure, in the same setting: with `CC1(COCc2cccc(-c3ccc(OC(F)(F)F)cc3)c2)CCn2cc([N+](=O)[O-])nc2O1` (centres unmarked) the figure was 80 to 82 °C; with `O=[N+]([O-])c1cn2c(n1)OC(COc1ccc(-c3ccc(OC(F)(F)F)cc3)cn1)C2` (centres unmarked), 127 to 130 °C; with `O=[N+]([O-])c1cn2c(n1)OC[C@@H](COc1ccc(OC(F)(F)F)cc1)C2`, 138 to 139 °C. On to `O=[N+]([O-])c1cn2c(n1)OC[C@H](COc1ccc(OC(F)(F)F)cc1)C2`, for which the melting point lay in the range of 139 to 140 °C. Regarding `O=[N+]([O-])c1cn2c(n1)OCC(COc1ccc(-c3ccc(F)cc3)cc1)C2` (centres unmarked), the melting point fell in the range of 201 to 203 °C. In turn, `O=[N+]([O-])c1cn2c(n1)OCC(COc1ccc(-c3ccc(C(F)(F)F)cc3)cc1)C2` (centres unmarked) gave a melting point of 218 to 221 °C. Regarding `O=[N+]([O-])c1cn2c(n1)OCC(COc1ccc(-c3ccc(OC(F)(F)F)cc3)cc1)C2` (centres unmarked), the melting point fell in the range of 192 to 194 °C. `O=[N+]([O-])c1cn2c(n1)OCC(COc1ccc(-c3ccc(F)cc3)cn1)C2` (centres unmarked): the melting point lay in the range of 160 to 161 °C. The compound `O=[N+]([O-])c1cn2c(n1)OCC(COc1ccc(-c3ccc(C(F)(F)F)cc3)cn1)C2` (centres unmarked) showed a melting point of 180 to 182 °C.

Compound `O=[N+]([O-])c1cn2c(n1)OCC(COc1ccc(-c3ccc(OC(F)(F)F)cc3)cn1)C2` (centres unmarked) showed a melting point of 182 to 183 °C. `O=[N+]([O-])c1cn2c(n1)OCC(COc1ccc(-c3ccc(F)cc3)nc1)C2` (centres unmarked) registered a melting point of 214 to 216 °C. As for `O=[N+]([O-])c1cn2c(n1)OCC(COc1ccc(-c3ccc(C(F)(F)F)cc3)nc1)C2` (centres unmarked), the melting point lay within 233 to 235 °C. `O=[N+]([O-])c1cn2c(n1)OCC(COc1ccc(-c3ccc(OC(F)(F)F)cc3)nc1)C2` (centres unmarked) returned a melting point of 180 to 181 °C. With `O=[N+]([O-])c1cn2c(n1)OC(COc1ccc(OCc3ccccc3)cc1)CC2` (centres unmarked) (hydrate or solvate), the melting point lay in the range of 222 to 224 °C.

As to `O=[N+]([O-])c1cn2c(n1)OCC(COc1ccc(OC(F)(F)F)cc1)C2` (racemic), the melting point lay within 141 to 143 °C. As for `CC1(COc2ccc(-c3ccc(F)cc3)cc2)Cn2cc([N+](=O)[O-])nc2O1` (centres unmarked) [Compound 10, 2-{[(4′-fluoro[1,1′-biphenyl]-4-yl)oxy]methyl}-2-methyl-6-nitro-2,3-dihydroimidazo[2,1-b][1,3]oxazole], the melting point was 180 to 181 °C. For the same compound, the MIC in data set [1] is 0.045 µM (≈ 0.0166 µg/mL). For the same compound, the IC50 in data set [2] is greater than 128 µM. The half-maximal inhibitory concentration (IC50) in data set [3] was 2 µg/mL (≈ 5.41 µM). Further, the IC50 in data set [4] was 0.04 µg/mL (≈ 0.108 µM). Besides, the IC50 in data set [5] worked out at 0.23 µg/mL (≈ 0.623 µM).

In turn, `O=[N+]([O-])c1cn2c(n1)OC(COCc1ccc(OCc3ccccc3)cc1)CC2` (centres unmarked) [Compound 49, 7-({[4-(benzyloxy)benzyl]oxy}methyl)-2-nitro-6,7-dihydro-5H-imidazo[2,1-b][1,3]oxazine] showed a melting point of 151 to 153 °C. Moreover, the IC50 in data set [2] is greater than 128 µM. The half-maximal inhibitory concentration (IC50) in data set [3] stood at 0.55 µg/mL (≈ 1.39 µM). For the same compound, the IC50 in data set [4] was 0.048 µg/mL (≈ 0.121 µM). The IC50 in data set [5] worked out at 0.065 µg/mL (≈ 0.164 µM). Take `O=[N+]([O-])c1cn2c(n1)OCC(COCc1ccc(OCc3ccccc3)cc1)C2` (centres unmarked) [Compound 73, 6-({[4-(benzyloxy)benzyl]oxy}methyl)-2-nitro-6,7-dihydro-5H-imidazo[2,1-b][1,3]oxazine]: the melting point lay in the range of 150 to 151 °C. The 50% inhibitory concentration (IC50) in data set [2] is 113 µM. For the same compound, the IC50 in data set [3] is 2.8 µg/mL (≈ 7.08 µM). In data set [4], the 50% inhibitory concentration (IC50) turned out to be 0.16 µg/mL (≈ 0.405 µM). Further, in data set [5], the half-inhibitory concentration (IC50) was found to be 0.53 µg/mL (≈ 1.34 µM).

The values above are taken from patent US8293734B2, “Nitroimidazooxazine and nitroimidazooxazole analogues and their uses” (priority 2009, dated 2012).
